Assay results from PubChem BioAssay (NCI).
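Compound exposure: 48 hours, 5 concentrations, 96-well plates. GI50 marks 50% less growth. Definition used: TGI = concentration required for complete inhibition of growth.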

Assays:
Assay in all cases: DTP human tumour cell line panel, 48 h
SF-295 CNS = tested on: SF-295 CNS
A549 NSCLC = tested on: A549 NSCLC
T-47D breast = tested on: T-47D breast
IGROV1 ovarian = tested on: IGROV1 ovarian
DU-145 prostate = tested on: DU-145 prostate
EKVX NSCLC = tested on: EKVX NSCLC
U251 CNS = tested on: U251 CNS
SF-539 CNS = tested on: SF-539 CNS
LOX IMVI melanoma = tested on: LOX IMVI melanoma
SK-OV-3 ovarian = tested on: SK-OV-3 ovarian
MCF7 breast = tested on: MCF7 breast
MDA-MB-435 = tested on: MDA-MB-435
HL-60(TB) leukemia = tested on: HL-60(TB) leukemia
MALME-3M melanoma = tested on: MALME-3M melanoma
KM12 colon = tested on: KM12 colon
NCI-H23 lung = tested on: NCI-H23 lung
CCRF-CEM leukemia = tested on: CCRF-CEM leukemia
COLO 205 colon = tested on: COLO 205 colon
HOP-62 NSCLC = tested on: HOP-62 NSCLC
HT29 colon = tested on: HT29 colon
SF-268 CNS = tested on: SF-268 CNS
OVCAR-4 ovarian = tested on: OVCAR-4 ovarian
SK-MEL-2 melanoma = tested on: SK-MEL-2 melanoma
NCI-H460 lung = tested on: NCI-H460 lung
HCC-2998 colon = tested on: HCC-2998 colon
K-562 leukemia = tested on: K-562 leukemia
CAKI-1 renal = tested on: CAKI-1 renal
BT-549 breast = tested on: BT-549 breast
OVCAR-8 ovarian = tested on: OVCAR-8 ovarian

COc1ccc2nc(NNC(=O)c3cnccn3)c3cccn3c2c1
GI50 (SF-295 CNS): 219 nM | TGI (SF-295 CNS): 4350 nM | GI50 (A549 NSCLC): 269 nM | TGI (A549 NSCLC): 14300 nM | GI50 (T-47D breast): 433 nM | TGI (T-47D breast): 25500 nM | GI50 (IGROV1 ovarian): 132 nM | TGI (IGROV1 ovarian): 2320 nM | GI50 (DU-145 prostate): 283 nM | TGI (DU-145 prostate): 26700 nM | GI50 (EKVX NSCLC): 268 nM | TGI (EKVX NSCLC): 18900 nM | GI50 (U251 CNS): 184 nM | TGI (U251 CNS): 7160 nM | GI50 (SF-539 CNS): 362 nM | TGI (SF-539 CNS): 10600 nM | GI50 (LOX IMVI melanoma): 177 nM | TGI (LOX IMVI melanoma): 1780 nM | GI50 (SK-OV-3 ovarian): 540 nM | TGI (SK-OV-3 ovarian): 9090 nM | GI50 (MCF7 breast): 270 nM | TGI (MCF7 breast): 2770 nM | GI50 (MDA-MB-435): 572 nM | TGI (MDA-MB-435): > 100000 nM | GI50 (HL-60(TB) leukemia): 270 nM | GI50 (MALME-3M melanoma): 639 nM | TGI (MALME-3M melanoma): 15400 nM | GI50 (KM12 colon): 321 nM | TGI (KM12 colon): > 21000 nM | GI50 (NCI-H23 lung): 545 nM | TGI (NCI-H23 lung): > 36000 nM | GI50 (CCRF-CEM leukemia): 91.9 nM | TGI (CCRF-CEM leukemia): > 100000 nM | GI50 (COLO 205 colon): 331 nM | TGI (COLO 205 colon): 8280 nM | GI50 (HOP-62 NSCLC): 118 nM | TGI (HOP-62 NSCLC): 20000 nM | GI50 (HT29 colon): 414 nM | TGI (HT29 colon): > 67100 nM | GI50 (SF-268 CNS): 227 nM | TGI (SF-268 CNS): 19400 nM | GI50 (OVCAR-4 ovarian): 171 nM | TGI (OVCAR-4 ovarian): 5070 nM | GI50 (SK-MEL-2 melanoma): 688 nM | TGI (SK-MEL-2 melanoma): > 100000 nM | GI50 (NCI-H460 lung): 134 nM | TGI (NCI-H460 lung): 3880 nM | GI50 (HCC-2998 colon): 522 nM | TGI (HCC-2998 colon): > 52500 nM | GI50 (K-562 leukemia): 351 nM | TGI (K-562 leukemia): > 100000 nM | GI50 (CAKI-1 renal): 248 nM | TGI (CAKI-1 renal): 15500 nM | GI50 (BT-549 breast): 857 nM | TGI (BT-549 breast): 21000 nM | GI50 (OVCAR-8 ovarian): 303 nM | TGI (OVCAR-8 ovarian): > 47300 nM
